In the OligoGym collection:
HELM strings list units from the 5' end as sugar, base in round brackets, then linkage (d deoxyribose, r ribose, m 2'-O-methyl, p phosphodiester). Strings are as the collection lists them; they lack the last nucleoside at the 3' end of the tested compound. [moe] = 2'-O-(2-methoxyethyl) (MOE); [sp] = phosphorothioate linkage; [m5C] = 5-methylcytosine

Molecular target: SMN2
Experiment: mouse, dose not given
Conditions: ASO

“RNA1{[moe](A)[sp].[moe](G)[sp].[moe](A)[sp].[moe](T)[sp].[moe](T)[sp].[moe]([m5C])[sp].[moe](A)[sp].[moe]([m5C])[sp].[moe](T)[sp].[moe](T)[sp].[moe](T)[sp].[moe]([m5C])[sp].[moe](A)[sp].[moe](T)[sp].[moe](A)[sp].[moe](A)[sp].[moe](T)[sp].[moe](G)[sp].[moe]([m5C])}$$$$ (last 3' nucleoside missing)” showed a 3 h FOB score of 3.5 score 0-7.

Substance “RNA1{[moe](A)[sp].[moe](T)[sp].[moe](T)[sp].[moe]([m5C])[sp].[moe](A)[sp].[moe]([m5C])[sp].[moe](T)[sp].[moe](T)[sp].[moe](T)[sp].[moe]([m5C])[sp].[moe](A)[sp].[moe](T)[sp].[moe](A)[sp].[moe](A)[sp].[moe](T)[sp].[moe](G)[sp].[moe]([m5C])[sp].[moe](T)[sp].[moe](G)}$$$$ (last 3' nucleoside missing)” has a 3 h FOB score of 4 score 0-7.

Work on “RNA1{[moe](A)[sp].[moe](T)[sp].[moe](T)[sp].[moe]([m5C])[sp].[moe](A)[sp].[moe]([m5C])[sp].[moe](T)[sp].[moe](T)[sp].[moe](T)[sp].[moe]([m5C])[sp].[moe](A)[sp].[moe](T)[sp].[moe](A)[sp].[moe](A)[sp].[moe](T)[sp].[moe](G)[sp].[moe]([m5C])[sp].[moe](T)}$$$$ (last 3' nucleoside missing)” yielded a 3 h FOB score of 3.5 score 0-7.

In the case of “RNA1{[moe](A)[sp].[moe](T)[sp].[moe](T)[sp].[moe]([m5C])[sp].[moe](A)[sp].[moe]([m5C])[sp].[moe](T)[sp].[moe](T)[sp].[moe](T)[sp].[moe]([m5C])[sp].[moe](A)[sp].[moe](T)[sp].[moe](A)[sp].[moe](A)[sp].[moe](T)[sp].[moe](G)[sp].[moe]([m5C])p.[moe](T)[sp].[moe](G)}$$$$ (last 3' nucleoside missing)”, the 3 h FOB score is reported as 4 score 0-7.

“RNA1{[moe](A)[sp].[moe](T)[sp].[moe](T)[sp].[moe]([m5C])[sp].[moe](A)[sp].[moe]([m5C])[sp].[moe](T)[sp].[moe](T)[sp].[moe](T)[sp].[moe]([m5C])[sp].[moe](A)[sp].[moe](T)[sp].[moe](A)[sp].[moe](A)[sp].[moe](T)[sp].[moe](G)p.[moe]([m5C])p.[moe](T)[sp].[moe](G)}$$$$ (last 3' nucleoside missing)” was tested, and the 3 h FOB score was 3 score 0-7.

Work on “RNA1{[moe](A)[sp].[moe](T)[sp].[moe](T)[sp].[moe]([m5C])[sp].[moe](A)[sp].[moe]([m5C])[sp].[moe](T)[sp].[moe](T)[sp].[moe](T)[sp].[moe]([m5C])[sp].[moe](A)[sp].[moe](T)[sp].[moe](A)[sp].[moe](A)[sp].[moe](T)p.[moe](G)[sp].[moe]([m5C])p.[moe](T)[sp].[moe](G)}$$$$ (last 3' nucleoside missing)” yielded a 3 h FOB score of 2 score 0-7.

Work on “RNA1{[moe](A)[sp].[moe](T)[sp].[moe](T)[sp].[moe]([m5C])[sp].[moe](A)[sp].[moe]([m5C])[sp].[moe](T)[sp].[moe](T)[sp].[moe](T)[sp].[moe]([m5C])p.[moe](A)[sp].[moe](T)[sp].[moe](A)[sp].[moe](A)[sp].[moe](T)[sp].[moe](G)[sp].[moe]([m5C])[sp].[moe](T)[sp].[moe](G)}$$$$ (last 3' nucleoside missing)” yielded a 3 h FOB score of 4 score 0-7.

In the case of “RNA1{[moe](A)[sp].[moe](T)[sp].[moe](T)[sp].[moe]([m5C])[sp].[moe](A)[sp].[moe]([m5C])[sp].[moe](T)[sp].[moe](T)[sp].[moe](T)[sp].[moe]([m5C])p.[moe](A)[sp].[moe](T)[sp].[moe](A)[sp].[moe](A)[sp].[moe](T)[sp].[moe](G)[sp].[moe]([m5C])p.[moe](T)[sp].[moe](G)}$$$$ (last 3' nucleoside missing)”, the 3 h FOB score is reported as 2.75 score 0-7.

“RNA1{[moe](A)[sp].[moe](T)[sp].[moe](T)[sp].[moe]([m5C])[sp].[moe](A)[sp].[moe]([m5C])[sp].[moe](T)[sp].[moe](T)[sp].[moe](T)p.[moe]([m5C])p.[moe](A)[sp].[moe](T)[sp].[moe](A)[sp].[moe](A)[sp].[moe](T)[sp].[moe](G)[sp].[moe]([m5C])[sp].[moe](T)[sp].[moe](G)}$$$$ (last 3' nucleoside missing)” was tested, and the 3 h FOB score was 4 score 0-7.

Work on “RNA1{[moe](A)[sp].[moe](T)p.[moe](T)[sp].[moe]([m5C])[sp].[moe](A)[sp].[moe]([m5C])[sp].[moe](T)[sp].[moe](T)[sp].[moe](T)[sp].[moe]([m5C])[sp].[moe](A)[sp].[moe](T)[sp].[moe](A)[sp].[moe](A)[sp].[moe](T)[sp].[moe](G)[sp].[moe]([m5C])[sp].[moe](T)[sp].[moe](G)}$$$$ (last 3' nucleoside missing)” yielded a 3 h FOB score of 4 score 0-7.

“RNA1{[moe](A)[sp].[moe](T)p.[moe](T)[sp].[moe]([m5C])[sp].[moe](A)[sp].[moe]([m5C])[sp].[moe](T)[sp].[moe](T)[sp].[moe](T)[sp].[moe]([m5C])[sp].[moe](A)[sp].[moe](T)[sp].[moe](A)[sp].[moe](A)[sp].[moe](T)[sp].[moe](G)[sp].[moe]([m5C])p.[moe](T)[sp].[moe](G)}$$$$ (last 3' nucleoside missing)” gave a 3 h FOB score of 2 score 0-7.

“RNA1{[moe](A)[sp].[moe](T)p.[moe](T)[sp].[moe]([m5C])[sp].[moe](A)[sp].[moe]([m5C])[sp].[moe](T)[sp].[moe](T)[sp].[moe](T)[sp].[moe]([m5C])p.[moe](A)[sp].[moe](T)[sp].[moe](A)[sp].[moe](A)[sp].[moe](T)[sp].[moe](G)[sp].[moe]([m5C])[sp].[moe](T)[sp].[moe](G)}$$$$ (last 3' nucleoside missing)” gave a 3 h FOB score of 3.25 score 0-7.

With “RNA1{[moe](A)[sp].[moe](T)p.[moe](T)[sp].[moe]([m5C])p.[moe](A)[sp].[moe]([m5C])[sp].[moe](T)[sp].[moe](T)[sp].[moe](T)[sp].[moe]([m5C])[sp].[moe](A)[sp].[moe](T)[sp].[moe](A)[sp].[moe](A)[sp].[moe](T)[sp].[moe](G)[sp].[moe]([m5C])[sp].[moe](T)[sp].[moe](G)}$$$$ (last 3' nucleoside missing)” the 3 h FOB score was 3.5 score 0-7.

Work on “RNA1{[moe](A)[sp].[moe](T)p.[moe](T)p.[moe]([m5C])[sp].[moe](A)[sp].[moe]([m5C])[sp].[moe](T)[sp].[moe](T)[sp].[moe](T)[sp].[moe]([m5C])[sp].[moe](A)[sp].[moe](T)[sp].[moe](A)[sp].[moe](A)[sp].[moe](T)[sp].[moe](G)[sp].[moe]([m5C])[sp].[moe](T)[sp].[moe](G)}$$$$ (last 3' nucleoside missing)” yielded a 3 h FOB score of 3.25 score 0-7.

For “RNA1{[moe](A)[sp].[moe]([m5C])[sp].[moe](T)[sp].[moe](T)[sp].[moe](T)[sp].[moe]([m5C])[sp].[moe](A)[sp].[moe](T)[sp].[moe](A)[sp].[moe](A)[sp].[moe](T)[sp].[moe](G)[sp].[moe]([m5C])[sp].[moe](T)[sp].[moe](G)[sp].[moe](G)[sp].[moe]([m5C])[sp].[moe](A)}$$$$ (last 3' nucleoside missing)”, the 3 h FOB score was 0 score 0-7.

Work on “RNA1{[moe](A)[sp].[moe]([m5C])[sp].[moe](T)[sp].[moe](T)[sp].[moe](T)[sp].[moe]([m5C])[sp].[moe](A)[sp].[moe](T)[sp].[moe](A)[sp].[moe](A)[sp].[moe](T)[sp].[moe](G)[sp].[moe]([m5C])[sp].[moe](T)[sp].[moe](G)[sp].[moe](G)}$$$$ (last 3' nucleoside missing)” yielded a 3 h FOB score of 1.12 score 0-7.

“RNA1{[moe](A)[sp].[moe]([m5C])[sp].[moe](T)[sp].[moe](T)[sp].[moe](T)[sp].[moe]([m5C])[sp].[moe](A)[sp].[moe](T)[sp].[moe](A)[sp].[moe](A)[sp].[moe](T)[sp].[moe](G)[sp].[moe]([m5C])[sp].[moe](T)[sp].[moe](G)}$$$$ (last 3' nucleoside missing)” gave a 3 h FOB score of 3.75 score 0-7.

“RNA1{[moe](A)[sp].[moe]([m5C])[sp].[moe](T)[sp].[moe](T)[sp].[moe](T)[sp].[moe]([m5C])[sp].[moe](A)[sp].[moe](T)[sp].[moe](A)[sp].[moe](A)[sp].[moe](T)p.[moe](G)p.[moe]([m5C])p.[moe](T)p.[moe](G)[sp].[moe](G)}$$$$ (last 3' nucleoside missing)” was tested, and the 3 h FOB score was 0 score 0-7.

“RNA1{[moe](A)[sp].[moe]([m5C])[sp].[moe](T)[sp].[moe](T)[sp].[moe](T)[sp].[moe]([m5C])[sp].[moe](A)[sp].[moe](T)[sp].[moe](A)p.[moe](A)p.[moe](T)p.[moe](G)p.[moe]([m5C])[sp].[moe](T)[sp].[moe](G)[sp].[moe](G)}$$$$ (last 3' nucleoside missing)” gave a 3 h FOB score of 0 score 0-7.

Work on “RNA1{[moe](A)[sp].[moe]([m5C])[sp].[moe](T)[sp].[moe](T)[sp].[moe](T)[sp].[moe]([m5C])[sp].[moe](A)[sp].[moe](T)p.[moe](A)p.[moe](A)p.[moe](T)[sp].[moe](G)[sp].[moe]([m5C])[sp].[moe](T)[sp].[moe](G)[sp].[moe](G)}$$$$ (last 3' nucleoside missing)” yielded a 3 h FOB score of 1 score 0-7.

For “RNA1{[moe](A)[sp].[moe]([m5C])[sp].[moe](T)[sp].[moe](T)[sp].[moe](T)[sp].[moe]([m5C])[sp].[moe](A)p.[moe](T)p.[moe](A)p.[moe](A)p.[moe](T)[sp].[moe](G)[sp].[moe]([m5C])[sp].[moe](T)[sp].[moe](G)[sp].[moe](G)}$$$$ (last 3' nucleoside missing)”, the 3 h FOB score was 0.25 score 0-7.

With “RNA1{[moe](A)[sp].[moe]([m5C])[sp].[moe](T)[sp].[moe](T)[sp].[moe](T)[sp].[moe]([m5C])[sp].[moe](A)p.[moe](T)p.[moe](A)p.[moe](A)p.[moe](T)p.[moe](G)[sp].[moe]([m5C])[sp].[moe](T)[sp].[moe](G)[sp].[moe](G)}$$$$ (last 3' nucleoside missing)” the 3 h FOB score was 0 score 0-7.

“RNA1{[moe](A)[sp].[moe]([m5C])[sp].[moe](T)[sp].[moe](T)[sp].[moe](T)[sp].[moe]([m5C])p.[moe](A)p.[moe](T)p.[moe](A)p.[moe](A)p.[moe](T)p.[moe](G)[sp].[moe]([m5C])[sp].[moe](T)[sp].[moe](G)[sp].[moe](G)}$$$$ (last 3' nucleoside missing)” showed a 3 h FOB score of 0 score 0-7.
